Reference: patent publication US11191769B2, “Fused thiophene compounds” (BioTheryX, Inc., priority 2018, dated 2021)

Tests used:
Type in all cases: cell-based
IL-2 = IL-2 fold-change assay, anti-CD3 stimulated PBMCs, Mesoscale; conditions: PBMC, PBMCs on anti-human CD3 (OKT3) coated plates, 24 h, fold difference from the DMSO control
Description: For the IL-2 analysis, 96 well plates were precoated with 1 μg/mL anti-human CD3 antibody (OKT3, eBioscience Inc., San Diego, Calif.). After washing with PBS, the indicated compound was added (50 μL/well) followed by PBMCs diluted at 3-4 million cells/mL (150 μL/well). Plates were incubated for 24 h and the supernatants collected for Mesoscale IL-2 analysis. IL-2 activity is measured as fold difference from the DMSO control.
(§1) In each of Tables 5-7, the % inhibition values are reported as “A”, “B”, “C”, or “D”. “A” represents a % inhibition value of less than 50% (value <50%). “B” represents a % inhibition value of equal to or more than 50% and less than 70% (50%≤value<70%). “C” represents a % inhibition value of equal to or more than 70% and less than 90% (70%≤value<90%). “D” represents a % inhibition value of equal or more than 90% (value≥90%). In Table 8, the fold-change values are reported as “A”, “B”, “C”, or “D”. “A” represents a fold-change value of equal to or less than 1 (value≤1). “B” represents a fold-change value of more than 1 and equal to or less than 2 (1<value≤2). “C” represents a fold-change value of more than 2 and equal to or less than 3 (2<value≤3). “D” represents a fold-change value of more than 3 (value>3).

IKAROS = molecular target: T1, IKAROS (Homo sapiens, UniProt Q13422+Q96SW2); assay: IKAROS degradation assay (Western blot, MV-4-11 cells); conditions: 6-8 hours; for IKAROS % degradation at 1 µM: MV4-11, 1 μM
T1 construct: endogenous in cells; host or cells: MV-4-11
T1 sequence (Q13422 whole entry): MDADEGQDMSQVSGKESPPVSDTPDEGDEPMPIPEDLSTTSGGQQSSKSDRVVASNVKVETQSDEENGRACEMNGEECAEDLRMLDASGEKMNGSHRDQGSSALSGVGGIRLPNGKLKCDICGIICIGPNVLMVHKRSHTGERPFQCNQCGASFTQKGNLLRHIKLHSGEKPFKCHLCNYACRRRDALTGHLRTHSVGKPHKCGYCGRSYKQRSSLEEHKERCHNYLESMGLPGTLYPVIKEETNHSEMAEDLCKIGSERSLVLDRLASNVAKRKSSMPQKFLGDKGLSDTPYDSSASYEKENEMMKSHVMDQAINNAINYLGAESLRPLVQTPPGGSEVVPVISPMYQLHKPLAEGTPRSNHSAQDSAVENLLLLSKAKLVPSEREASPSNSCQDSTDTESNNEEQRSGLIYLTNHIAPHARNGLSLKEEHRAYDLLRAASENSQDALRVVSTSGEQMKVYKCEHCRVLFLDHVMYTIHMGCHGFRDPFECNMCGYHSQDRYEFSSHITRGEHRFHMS
T1 sequence (Q96SW2 whole entry): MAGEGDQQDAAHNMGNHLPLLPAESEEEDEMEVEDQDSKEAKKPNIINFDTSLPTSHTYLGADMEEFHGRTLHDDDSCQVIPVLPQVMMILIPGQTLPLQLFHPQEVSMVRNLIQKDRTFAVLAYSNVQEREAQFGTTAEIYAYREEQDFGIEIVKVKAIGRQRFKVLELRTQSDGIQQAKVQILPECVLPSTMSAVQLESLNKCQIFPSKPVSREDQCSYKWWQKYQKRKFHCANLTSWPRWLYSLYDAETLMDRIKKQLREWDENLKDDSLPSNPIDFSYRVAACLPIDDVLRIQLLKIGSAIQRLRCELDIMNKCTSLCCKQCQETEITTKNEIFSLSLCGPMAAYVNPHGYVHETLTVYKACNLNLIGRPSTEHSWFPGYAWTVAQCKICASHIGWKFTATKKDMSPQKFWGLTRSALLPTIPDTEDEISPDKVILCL
T1 sequence (Q16531 whole entry partner): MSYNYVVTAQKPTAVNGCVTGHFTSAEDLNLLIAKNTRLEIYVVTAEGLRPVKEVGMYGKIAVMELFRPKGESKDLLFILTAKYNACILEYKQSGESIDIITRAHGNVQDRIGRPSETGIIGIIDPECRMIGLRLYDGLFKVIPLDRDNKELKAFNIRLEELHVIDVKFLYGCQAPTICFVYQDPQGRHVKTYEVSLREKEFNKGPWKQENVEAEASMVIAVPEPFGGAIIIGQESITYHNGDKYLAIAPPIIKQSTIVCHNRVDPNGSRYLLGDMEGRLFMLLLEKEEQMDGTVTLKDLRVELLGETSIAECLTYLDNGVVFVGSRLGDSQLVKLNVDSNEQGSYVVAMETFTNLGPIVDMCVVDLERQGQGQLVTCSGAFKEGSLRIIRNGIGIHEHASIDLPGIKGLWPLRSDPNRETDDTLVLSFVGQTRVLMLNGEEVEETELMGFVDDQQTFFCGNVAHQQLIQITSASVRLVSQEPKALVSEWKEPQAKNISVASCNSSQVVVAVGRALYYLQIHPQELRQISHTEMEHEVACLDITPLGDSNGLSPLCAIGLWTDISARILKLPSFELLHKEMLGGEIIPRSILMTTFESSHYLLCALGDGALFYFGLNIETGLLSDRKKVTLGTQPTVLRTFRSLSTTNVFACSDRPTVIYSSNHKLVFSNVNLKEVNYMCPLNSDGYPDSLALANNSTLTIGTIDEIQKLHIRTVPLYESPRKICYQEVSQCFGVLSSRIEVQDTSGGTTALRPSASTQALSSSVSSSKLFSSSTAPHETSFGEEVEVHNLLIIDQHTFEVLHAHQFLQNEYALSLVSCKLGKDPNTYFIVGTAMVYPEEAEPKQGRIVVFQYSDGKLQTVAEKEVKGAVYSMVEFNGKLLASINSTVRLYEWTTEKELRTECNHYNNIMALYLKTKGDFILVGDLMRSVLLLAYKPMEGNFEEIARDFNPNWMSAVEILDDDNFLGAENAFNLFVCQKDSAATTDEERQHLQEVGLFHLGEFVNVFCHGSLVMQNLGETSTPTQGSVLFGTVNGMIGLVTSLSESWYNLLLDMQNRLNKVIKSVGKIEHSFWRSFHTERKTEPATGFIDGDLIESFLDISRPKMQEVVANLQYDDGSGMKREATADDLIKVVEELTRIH
Description: (§2) MV-4-11 cells were grown in RPMI 1640 media supplemented with 10% fetal bovine serum, streptomycin and penicillin.
(§3) Cells were cultured at approximately 10^6 cells per mL and incubated in DMSO or the indicated compound for 6-8 hours. Whole cell extracts were prepared using RIPA buffer according to manufacturer's protocol (Pierce). Briefly, 3×10^6 cells were washed once in PBS, the cell pellets were resuspended in RIPA buffer and allowed to incubate for 15 minutes on ice. Cells debris was removed by centrifugation and the cleared whole cell lysates were transferred to new tubes for further analysis.
(§4) For Western blot analysis, whole cell protein extracts were separated on 4-12% SDS-polyacrylamide gels, transferred to nitrocellulose and probed with the indicated primary antibodies. Membranes were subsequently washed and probed with the appropriate IRDye secondary antibodies (LI-COR). The signal was detected using the Odyssey Imaging System (LI-COR).
(§5) The following antibodies were used in these studies: Anti-eRF3/GSPT1: Abcam, ab126090 (Cambridge, Mass.); Anti-Ikaros: Abcam, ab191394 (Cambridge, Mass.); Anti-CK1α: Abcam, ab108296 (Cambridge, Mass.); β-actin (8H10D10) mouse monoclonal antibody: Cell Signaling Technology, #3700 (Danvers, Mass.); IRDye 680RD Goat anti-rabbit antibody: LI-COR, 926-68071 (Lincoln, Nebr.); IRDye 800CW Goat anti-mouse antibody: LI-COR, 926-32210 (Lincoln, Nebr.).
(§6) In each of Tables 1-4, the % degradation values are reported as “A”, “B”, “C”, or “D”. “A” represents a % degradation value of less than 25% (value<25%). “B” represents a % degradation value of equal to or more than 25% and less than 50% (25%≤value<50%). “C” represents a % degradation value of equal to or more than 50% and less than 75% (50%≤value <75%). “D” represents a % degradation value of equal to or more than 75% (value≥75%).

TNFα = assay: TNF-α inhibition assay, LPS-induced PBMCs or CD14+ monocytes, Meso Scale; conditions: 1 h pretreatment, 100 ng/mL LPS 18-24 h, supernatant
Description: (§7) Either frozen primary blood mononuclear cells (PBMCs) or frozen CD14+ mobilized peripheral blood monocytes were purchased from AllCells (PB003F, Normal Peripheral Blood MNC (Alameda, Calif.)). Cells were quick thawed, washed 1-time with RPMI-1640 (10% FBS/1% Pen-Strep) and plated in 96 well plates at 200,000 cells per well. Cells were pretreated with DMSO only or with the indicated compound for 1 h and then induced with 100 ng/mL lipopolysaccharide (LPS) for 18-24 h. The supernatant was analyzed for IL-1β, IL-6, and TNFα, using Meso Scale assay according to manufacturer's protocol. The negative control wells were treated with DMSO.
as §1

IL-1β = IL-1β inhibition assay, LPS-induced PBMCs or CD14+ monocytes, Meso Scale; conditions: 1 h pretreatment, 100 ng/mL LPS 18-24 h, supernatant, read-out: I1-1β % Inhibition at 10 μM
Description: as §7, §1

IL-6 = IL-6 inhibition assay, LPS-induced PBMCs or CD14+ monocytes, Meso Scale; conditions: 1 h pretreatment, 100 ng/mL LPS 18-24 h, supernatant
Description: as §7, §1

MOLM-13 cells = assay: MOLM-13 cell viability assay (CellTiter-Glo); conditions: Homo sapiens, MOLM-13, 72 h, 3 days, % of DMSO control
Description: MOLM-13 cells were cultured in RPMI 1640 media supplemented with 10% fetal bovine serum, streptomycin and penicillin, and were plated in white walled 96-well plates at 2500 cells/well. Cells were incubated in DMSO (control) or the indicated compound for 3 days at 37° C. and 5% CO2. Following the incubation period, 100 μL of CellTiterGlow (CTG) reagent (CellTiter-Glo® Luminescent Cell Viability Assay, Promega (Madison, Wis.)) was added to each well. Following a 10 minutes incubation with shaking, luminescence was measured using the EnVision Multimode plate reader.
The MOLM-13 cell viability values as % DMSO are reported as “A”, “B”, “C”, or “D”. “A” represents a % viability value of less than 25% (value<25%). “B” represents a % viability value of equal to or more than 25% and less than 50% (25%≤value<50%). “C” represents a % viability value of equal to or more than 50% and less than 75% (50%≤value<75%). “D” represents a % viability value of equal or more than 75% (value≥75%).

CK1α = molecular target: T2, CK1α (Homo sapiens, UniProt P48729+Q96SW2); assay: CK1α degradation assay (Western blot, MV-4-11 cells); conditions: MV4-11, 6-8 hours
T2 construct: Whole cell extracts were prepared using RIPA buffer; endogenous in cells; host or cells: MV-4-11
T2 sequence (P48729 whole entry): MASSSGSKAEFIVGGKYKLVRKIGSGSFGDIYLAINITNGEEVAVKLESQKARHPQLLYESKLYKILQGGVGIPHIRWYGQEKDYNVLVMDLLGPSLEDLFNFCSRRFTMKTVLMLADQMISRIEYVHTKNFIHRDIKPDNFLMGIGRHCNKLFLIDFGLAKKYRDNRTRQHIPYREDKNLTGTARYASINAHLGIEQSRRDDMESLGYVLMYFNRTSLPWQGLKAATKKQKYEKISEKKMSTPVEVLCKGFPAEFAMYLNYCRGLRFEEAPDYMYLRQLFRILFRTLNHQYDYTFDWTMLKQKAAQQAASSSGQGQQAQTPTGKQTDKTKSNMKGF
T2 sequence (Q96SW2 whole entry): as the sequence (Q96SW2 whole entry) above
T2 sequence (Q16531 whole entry partner): as the sequence (Q16531 whole entry partner) above
Description: as §2, §3, §4, §5, §6

SMILES: O=C1CC[C@H](N2Cc3c(NCc4ccc(CN5CCOCC5)cc4)csc3C2=O)C(=O)N1 [Compound 3, (S)-3-(3-((4-(morpholinomethyl)benzyl)amino)-6-oxo-4H-thieno[2,3-c]pyrrol-5(6H)-yl)piperidine-2,6-dione]
- fold induction at 10 µM (IL-2): ≤ 1
- IKAROS % Degradation at 10 μM (IKAROS): C (“C” represents a % degradation value of equal to or more than 50% and less than 75% (50%≤value <75%))
- inhibition at 10 µM (TNFα): < 50%

SMILES: O=C1CC[C@H](N2Cc3c(COc4ccc(CN5CCOCC5)cc4)csc3C2=O)C(=O)N1 [Compound 5, (S)-3-(3-((4-(morpholinomethyl)phenoxy)methyl)-6-oxo-4H-thieno[2,3-c]pyrrol-5(6H)-yl)piperidine-2,6-dione]
- fold induction at 10 µM (IL-2): 1 to 2

SMILES: O=C1CC[C@H](N2Cc3c(csc3CCc3ccc(CN4CCOCC4)cc3)C2=O)C(=O)N1 [Compound 6, (S)-3-(1-(4-(morpholinomethyl)phenethyl)-4-oxo-4H-thieno[3,4-c]pyrrol-5(6H)-yl)piperidine-2,6-dione]
- fold induction at 10 µM (IL-2): 2 to 3
- IKAROS % degradation at 1 µM (IKAROS): 25 to 50%
- inhibition at 10 µM (TNFα): 70 to 90%
- inhibition at 10 µM (IL-1β): 70 to 90%
- inhibition at 10 µM (IL-6): < 50%

SMILES: O=C1CC[C@H](N2Cc3c(csc3COc3cccc(CN4CCOCC4)c3)C2=O)C(=O)N1 [Compound 7, (S)-3-(1-((3-(morpholinomethyl)phenoxy)methyl)-4-oxo-4H-thieno[3,4-c]pyrrol-5(6H)-yl)piperidine-2,6-dione]
- fold induction at 10 µM (IL-2): 2 to 3
- IKAROS % degradation at 1 µM (IKAROS): 50 to 75%
- inhibition at 10 µM (TNFα): 70 to 90%
- inhibition at 10 µM (IL-1β): 70 to 90%

SMILES: O=C1CC[C@H](N2Cc3c(csc3COc3ccc(CN4CCOCC4)cc3F)C2=O)C(=O)N1 [Compound 8, (S)-3-(1-((2-fluoro-4-(morpholinomethyl)phenoxy)methyl)-4-oxo-4H-thieno[3,4-c]pyrrol-5(6H)-yl)piperidine-2,6-dione]
- fold induction at 10 µM (IL-2): 2 to 3
- IKAROS % degradation at 1 µM (IKAROS): 25 to 50%
- inhibition at 10 µM (TNFα): > 90%
- inhibition at 10 µM (IL-1β): > 90%
- inhibition at 10 µM (IL-6): 70 to 90%

SMILES: O=C1CC[C@H](N2Cc3c(csc3COCc3ccc(CN4CCOCC4)cc3)C2=O)C(=O)N1 [Compound 9, (S)-3-(1-(((4-(morpholinomethyl)benzyl)oxy)methyl)-4-oxo-4H-thieno[3,4-c]pyrrol-5(6H)-yl)piperidine-2,6-dione]
- fold induction at 10 µM (IL-2): > 3
- inhibition at 10 µM (TNFα): > 90%
- inhibition at 10 µM (IL-1β): 70 to 90%
- inhibition at 10 µM (IL-6): < 50%

SMILES: O=C1CC[C@H](N2Cc3c(csc3CNc3ccc(CN4CCOCC4)cc3)C2=O)C(=O)N1 [Compound 10, (S)-3-(1-(((4-(morpholinomethyl)phenyl)amino)methyl)-4-oxo-4H-thieno[3,4-c]pyrrol-5(6H)-yl)piperidine-2,6-dione]
- fold induction at 10 µM (IL-2): 2 to 3
- inhibition at 10 µM (TNFα): > 90%
- inhibition at 10 µM (IL-1β): 70 to 90%
- viability at 10 µM (MOLM-13 cells): 25 to 50%
- inhibition at 10 µM (IL-6): < 50%

SMILES: O=C1CC[C@H](N2Cc3c(CNc4ccc(CN5CCOCC5)cc4)csc3C2=O)C(=O)N1 [Compound 11, (S)-3-(3-(((4-(morpholinomethyl)phenyl)amino)methyl)-6-oxo-4H-thieno[2,3-c]pyrrol-5(6H)-yl)piperidine-2,6-dione]
- fold induction at 10 µM (IL-2): 1 to 2
- inhibition at 10 µM (TNFα): < 50%
- viability at 10 µM (MOLM-13 cells): < 25%

SMILES: O=C1CC[C@H](N2Cc3c(csc3COc3ccc(CN4CCOCC4)cn3)C2=O)C(=O)N1 [Compound 12, (S)-3-(1-(((5-(morpholinomethyl)pyridin-2-yl)oxy)methyl)-4-oxo-4H-thieno[3,4-c]pyrrol-5(6H)-yl)piperidine-2,6-dione]
- fold induction at 10 µM (IL-2): 1 to 2
- inhibition at 10 µM (TNFα): < 50%

SMILES: O=C1CC[C@H](N2Cc3c(csc3COc3ccc(CN4CCCC4)cc3)C2=O)C(=O)N1 [Compound 13, (S)-3-(4-oxo-1-((4-(pyrrolidin-1-ylmethyl)phenoxy)methyl)-4H-thieno[3,4-c]pyrrol-5(6H)-yl)piperidine-2,6-dione]
- fold induction at 10 µM (IL-2): 2 to 3
- IKAROS % degradation at 1 µM (IKAROS): 25 to 50%
- inhibition at 10 µM (TNFα): > 90%
- percent degradation at 1 µM (CK1α): 50 to 75%
- inhibition at 10 µM (IL-1β): > 90%
- viability at 10 µM (MOLM-13 cells): 50 to 75%
- inhibition at 10 µM (IL-6): 50 to 70%

SMILES: O=C1CC[C@H](N2Cc3c(csc3COc3ccc(CCN4CCOCC4)cc3)C2=O)C(=O)N1 [Compound 15, (S)-3-(1-((4-(2-morpholinoethyl)phenoxy)methyl)-4-oxo-4H-thieno[3,4-c]pyrrol-5(6H)-yl)piperidine-2,6-dione]
- fold induction at 10 µM (IL-2): > 3
- IKAROS % degradation at 1 µM (IKAROS): 25 to 50%
- inhibition at 10 µM (TNFα): 70 to 90%
- percent degradation at 1 µM (CK1α): 25 to 50%
- inhibition at 10 µM (IL-1β): > 90%
- inhibition at 10 µM (IL-6): 50 to 70%

SMILES: O=C1CC[C@H](N2Cc3cc(COc4ccc(CN5CCOCC5)cc4)sc3C2=O)C(=O)N1 [Compound 16, (S)-3-(2-((4-(morpholinomethyl)phenoxy)methyl)-6-oxo-4H-thieno[2,3-c]pyrrol-5(6H)-yl)piperidine-2,6-dione]
- fold induction at 10 µM (IL-2): ≤ 1
- IKAROS % Degradation at 10 μM (IKAROS): A (“A” represents a % degradation value of less than 25% (value<25%))
- inhibition at 10 µM (TNFα): < 50%

SMILES: CN(C)Cc1ccc(OCc2scc3c2CN([C@H]2CCC(=O)NC2=O)C3=O)cc1 [Compound 18, (S)-3-(1-((4-((dimethylamino)methyl)phenoxy)methyl)-4-oxo-4H-thieno[3,4-c]pyrrol-5(6H)-yl)piperidine-2,6-dione]
- fold induction at 10 µM (IL-2): 2 to 3
- IKAROS % Degradation at 10 μM (IKAROS): C (“C” represents a % degradation value of equal to or more than 50% and less than 75% (50%≤value <75%))
- inhibition at 10 µM (TNFα): 70 to 90%
- percent degradation at 1 µM (CK1α): ≥ 75%
- inhibition at 10 µM (IL-1β): 50 to 70%
- viability at 10 µM (MOLM-13 cells): < 25%

SMILES: O=C1CC[C@H](N2C(=O)c3csc(COc4ccc(CN5CCOCC5)cc4)c3C2=O)C(=O)N1 [Compound 20, (S)-5-(2,6-dioxopiperidin-3-yl)-1-((4-(morpholinomethyl)phenoxy)methyl)-4H-thieno[3,4-c]pyrrole-4,6(5H)-dione]
- fold induction at 10 µM (IL-2): 1 to 2
- IKAROS % Degradation at 10 μM (IKAROS): B (“B” represents a % degradation value of equal to or more than 25% and less than 50% (25%≤value<50%))
- inhibition at 10 µM (TNFα): 50 to 70%
- inhibition at 10 µM (IL-1β): 50 to 70%
- viability at 10 µM (MOLM-13 cells): < 25%
